# The source made the active and inactive calls.
# Assays:
# Coagulation factor XII = molecular target: T1, Coagulation factor XII (Homo sapiens, UniProt P00748); assay type: functional;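 also: activated factor XIIa alpha cleaving a fluorogenic AMC peptide substrate; inhibitor potency from loss of enzyme activity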
# T1 sequence (P00748 whole entry): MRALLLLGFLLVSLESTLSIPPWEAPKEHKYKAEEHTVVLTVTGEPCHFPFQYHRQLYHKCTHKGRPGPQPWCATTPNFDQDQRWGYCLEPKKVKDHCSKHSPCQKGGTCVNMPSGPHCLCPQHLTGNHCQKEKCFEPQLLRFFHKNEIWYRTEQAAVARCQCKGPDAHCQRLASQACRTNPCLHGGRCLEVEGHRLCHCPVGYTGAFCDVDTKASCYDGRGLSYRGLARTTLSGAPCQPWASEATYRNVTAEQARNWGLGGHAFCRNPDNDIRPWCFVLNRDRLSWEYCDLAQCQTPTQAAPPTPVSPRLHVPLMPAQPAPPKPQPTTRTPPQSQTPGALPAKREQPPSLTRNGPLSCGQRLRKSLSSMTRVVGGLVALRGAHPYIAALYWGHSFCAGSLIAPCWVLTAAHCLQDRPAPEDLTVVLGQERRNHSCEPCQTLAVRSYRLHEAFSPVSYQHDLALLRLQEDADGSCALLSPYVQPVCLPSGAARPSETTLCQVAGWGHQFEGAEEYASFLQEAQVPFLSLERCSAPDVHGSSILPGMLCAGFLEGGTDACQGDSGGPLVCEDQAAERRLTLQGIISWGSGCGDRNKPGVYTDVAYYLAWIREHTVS
# Caspase-3 = molecular target: T2, Caspase-3 (Homo sapiens, UniProt P42574); assay: Dose-response confirmation of uHTS inhibitor hits of Sentrin-Specific Protease 8 in a Caspase-3 Fluorescence assay.; assay type: functional
# T2 sequence (P42574 whole entry): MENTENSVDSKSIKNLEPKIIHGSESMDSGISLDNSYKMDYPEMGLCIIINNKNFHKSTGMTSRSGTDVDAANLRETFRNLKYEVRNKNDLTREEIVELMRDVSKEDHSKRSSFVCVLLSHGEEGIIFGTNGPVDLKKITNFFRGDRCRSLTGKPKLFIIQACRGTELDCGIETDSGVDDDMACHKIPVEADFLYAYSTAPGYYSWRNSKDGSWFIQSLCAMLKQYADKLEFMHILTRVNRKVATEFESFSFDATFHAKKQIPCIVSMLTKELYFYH
# [1] = molecular target: T3, Sentrin-specific protease 8 (Homo sapiens, UniProt Q96LD8); assay type: functional
# T3 sequence (Q96LD8 whole entry): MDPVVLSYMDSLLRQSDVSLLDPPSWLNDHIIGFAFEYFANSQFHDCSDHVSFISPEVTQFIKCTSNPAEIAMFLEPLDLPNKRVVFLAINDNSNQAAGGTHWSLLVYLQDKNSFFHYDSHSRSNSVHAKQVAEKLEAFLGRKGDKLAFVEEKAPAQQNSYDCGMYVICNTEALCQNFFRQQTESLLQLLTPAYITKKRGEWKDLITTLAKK
# [2] = molecular target: T3, Sentrin-specific protease 8; assay type: functional; remark: listed apart in the source
# [3] = blockade of melanocortin 4 receptor signaling – cell-based, plate reader, cherry pick, counter-screen for LGR2 antagonist project, dose response (AID 743444); assay type: functional;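 also: transfected HEK 293 cells stimulated with alpha-MSH peptide; potency of inhibitors of the alpha-MSH evoked signal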
# [4] = viability loss in HEK293 cells – cell-based, plate reader, cherry-picked samples, cytotoxicity control, dose response (AID 743446); assay type: functional
# [5] = toxicity toward HepG2 liver cells – cell-based, plate reader, cherry-pick, antagonist series, cytotoxicity control, dose response (AID 743416); assay type: functional
# [6] = blockers of bursicon-stimulated LGR2 cAMP reporter – cell-based, HEK293, CRE-luciferase reporter, cherry pick, set 2, dose response (AID 743343); assay type: functional;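 also: transfected cells were stimulated with diluted bursicon conditioned medium after compound addition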
# [7] = A549 cell cytotoxicity, dose response, cytotoxicity control, plate reader, cherry-pick, antagonist series (AID 743412); assay type: functional, cell-based
# [8] = IGROV1 cell killing – plate reader, dry powder samples, PAX8 inhibitor project, dose response (AID 743043); assay type: functional, cell-based; settings: IGROV-1
# Paired box protein Pax-8 = Paired box protein Pax-8 (Homo sapiens, UniProt Q06710); assay: PAX8 transcriptional activity inhibition in RMG-I – RMG-I cells, luciferase, cherry-pick, dose response (AID 687027); assay type: functional, cell-based;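 also: luciferase reporter driven by Pax8 target thyroperoxidase promoter measured by SteadyGlo luminescence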
# Chain of Paired box protein Pax-8 (Q06710 whole entry): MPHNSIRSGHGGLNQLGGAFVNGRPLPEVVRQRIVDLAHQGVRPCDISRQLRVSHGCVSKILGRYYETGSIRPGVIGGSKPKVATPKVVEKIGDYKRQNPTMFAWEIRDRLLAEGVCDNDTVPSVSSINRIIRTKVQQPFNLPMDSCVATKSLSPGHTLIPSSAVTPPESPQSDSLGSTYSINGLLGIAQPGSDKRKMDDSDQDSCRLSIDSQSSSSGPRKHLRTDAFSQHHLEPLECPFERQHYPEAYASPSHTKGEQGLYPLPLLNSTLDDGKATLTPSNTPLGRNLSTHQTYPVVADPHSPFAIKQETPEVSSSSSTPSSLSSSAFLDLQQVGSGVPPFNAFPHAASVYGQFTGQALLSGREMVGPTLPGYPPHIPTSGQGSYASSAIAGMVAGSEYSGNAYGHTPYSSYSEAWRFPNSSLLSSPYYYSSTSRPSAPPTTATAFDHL
# [9] = OVCAR8 cell viability loss – plate reader, dry powder samples, PAX8 project, dose response (AID 743197); assay type: functional, cell-based; settings: OVCAR-8
# [10] = OVCAR-3 cell viability loss – plate reader, dry powder samples, PAX8 inhibitor project, dose response (AID 743044); assay type: functional, cell-based
# Protein Wnt-3a = Protein Wnt-3a (Mus musculus, UniProt P27467); assay: SAR analysis of small molecule antagonists of Gli-SUFU in a Wnt3a luminescent reporter assay.; assay type: functional
# Chain of Protein Wnt-3a (P27467 whole entry): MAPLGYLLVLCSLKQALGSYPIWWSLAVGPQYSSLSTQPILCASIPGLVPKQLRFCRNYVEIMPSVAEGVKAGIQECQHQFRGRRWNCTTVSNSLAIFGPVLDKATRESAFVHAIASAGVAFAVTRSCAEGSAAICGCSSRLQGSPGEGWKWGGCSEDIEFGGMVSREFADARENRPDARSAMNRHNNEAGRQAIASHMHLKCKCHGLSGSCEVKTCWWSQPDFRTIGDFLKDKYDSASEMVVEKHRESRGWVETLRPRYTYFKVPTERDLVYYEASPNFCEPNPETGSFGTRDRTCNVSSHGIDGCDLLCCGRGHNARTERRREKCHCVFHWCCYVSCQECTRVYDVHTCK
# [11] = inhibition of bursicon-driven LGR2 cAMP signaling – cell-based, HEK293, CRE-luciferase reporter, cherry pick, dose response (AID 743342); assay type: functional
# [12] = T. cruzi growth inhibition in host cells, dose response, cell-based, plate reader, dry powder, set 2 (AID 652275); assay type: functional
smiles,measurement,setting,value
COc1ccc(N2C(=O)[C@@H]3[C@H](C2=O)[C@H]2c4ccccc4C=CN2[C@@H]3C(=O)Nc2ccccc2)cc1,IC50,Coagulation factor XII,> 50 µM (inactive)
same,IC50,Caspase-3,12.4 µM (active)
same,IC50,[1],16.7 µM (active)
same,IC50,[2],3.72 µM (active)
CCN1CCN(Cc2ccc(NC(=O)c3cccc(-c4ccc5nc(NC(=O)C6CC6)sc5n4)c3)cc2C(F)(F)F)CC1,AC50,[3],2.18 µM (active)
same,AC50,[4],8.7 µM (active)
same,AC50,[5],3.22 µM (active)
same,AC50,[6],5.27 µM (active)
same,AC50,[7],5.08 µM (active)
C[C@@H]1CN([C@@H](C)CO)C(=O)Cc2cc(NS(=O)(=O)c3ccc(Cl)cc3)ccc2O[C@H]1CN(C)Cc1ccc(Oc2ccccc2)cc1,AC50,[8],25.9 µM (active)
same,AC50,Paired box protein Pax-8,6.27 µM (active)
same,AC50,[9],26.7 µM (active)
same,AC50,[10],22.5 µM (active)
CCN(CC)c1cc(NC(=O)c2ccccc2F)ncn1,IC50,Protein Wnt-3a,0.172 µM (active)
C[C@H](CO)N1C[C@H](C)[C@H](CN(C)C(=O)Nc2ccccc2)OCCCC[C@H](C)Oc2ccc(NC(=O)C3CCCCC3)cc2C1=O,AC50,[11],3.87 µM (active)
same,AC50,[7],39.5 µM (active)
CN(C)CC#Cc1cccc(-c2nc(C(=O)NCc3ccc(Oc4ccccc4)cc3)cc3c2[C@H](CCO)N([S+]([O-])C(C)(C)C)C3)c1 (some centres not stated),AC50,[12],0.746 µM (active)

# Reference: ChEMBL document CHEMBL1201862, “PubChem BioAssay data set” (2004)
